Measurements taken from patent US20240238242A1, “EGCG buccal tablet and use thereof” (priority 2023, published 2024).
Read-outs that look alike come from different tables or passages of the source.

System: Novel enterovirus D68 (EV-D68)
Type: cell-based
Settings: for CPE test (virus replication in cell wells) / CPE test (virus replication in the cell wells): wells 1-10; for average inactivation efficiency against virus / inactivation efficiency against the virus: EV-D68 virus; for average inactivation efficiency against virus: three experiments; for CPE test per cell well: first experiment; for inactivation efficiency against the virus: single experiment

O=C(O[C@@H]1Cc2c(O)cc(O)cc2O[C@@H]1c1cc(O)c(O)c(O)c1)c1cc(O)c(O)c(O)c1 [EGCG, Epigallocatechin gallate]
74.88%: inactivation efficiency against the virus (5 mM EGCG, 5 minutes)
41.23%: average inactivation efficiency against virus (1 mM EGCG, 1 minute)
−: CPE test (virus replication in cell wells) (1 mM EGCG + virus, 1 minute, dilution factor 10^8, second experiment) | CPE test (virus replication in cell wells) (1 mM EGCG + virus, 1 minute, dilution factor 10^8, third experiment) | CPE test (virus replication in the cell wells) (1 mM EGCG + virus, co-incubated 5 minute, dilution factor 10^7, first experiment) | CPE test (virus replication in the cell wells) (1 mM EGCG + virus, co-incubated 5 minute, dilution factor 10^7, second experiment) | CPE test (virus replication in the cell wells) (1 mM EGCG + virus, co-incubated 5 minute, dilution factor 10^8, first experiment) | CPE test (virus replication in the cell wells) (1 mM EGCG + virus, co-incubated 5 minute, dilution factor 10^8, second experiment) | CPE test per cell well (5 mM EGCG + EV-D68 virus, 1 minute, dilution factor 10^8, wells 1-10) | CPE test (virus replication in cell wells) (5 mM EGCG + EV-D68 virus, co-incubated 5 minute, third experiment, dilution factor 10^7) | CPE test (virus replication in cell wells) (5 mM EGCG + EV-D68 virus, co-incubated 5 minute, third experiment, dilution factor 10^8) | CPE test (virus replication in cell wells) (5 mM EGCG + virus, 1 minute, dilution factor 10^7, second experiment) | CPE test (virus replication in cell wells) (5 mM EGCG + virus, 1 minute, dilution factor 10^8, second experiment) | CPE test (virus replication in cell wells) (5 mM EGCG + virus, 1 minute, dilution factor 10^8, third experiment) | CPE test (virus replication in the cell wells) (5 mM EGCG + virus, co-incubated 5 minute, dilution factor 10^7, first experiment) | CPE test (virus replication in the cell wells) (5 mM EGCG + virus, co-incubated 5 minute, dilution factor 10^7, second experiment) | CPE test (virus replication in the cell wells) (5 mM EGCG + virus, co-incubated 5 minute, dilution factor 10^8, first experiment) | CPE test (virus replication in the cell wells) (5 mM EGCG + virus, co-incubated 5 minute, dilution factor 10^8, second experiment)
80.05%: inactivation efficiency against the virus (5 mM EGCG, 1 minute)
+ and −: CPE test (virus replication in cell wells) (1 mM EGCG + virus, 1 minute, dilution factor 10^6, second experiment) | CPE test (virus replication in cell wells) (1 mM EGCG + virus, 1 minute, dilution factor 10^6, third experiment) | CPE test (virus replication in the cell wells) (1 mM EGCG + virus, co-incubated 5 minute, dilution factor 10^6, first experiment) | CPE test (virus replication in the cell wells) (1 mM EGCG + virus, co-incubated 5 minute, dilution factor 10^6, second experiment) | CPE test (virus replication in cell wells) (5 mM EGCG + virus, 1 minute, dilution factor 10^6, second experiment) | CPE test (virus replication in cell wells) (5 mM EGCG + virus, 1 minute, dilution factor 10^6, third experiment) | CPE test (virus replication in the cell wells) (5 mM EGCG + virus, co-incubated 5 minute, dilution factor 10^6, second experiment)
66.10%: average inactivation efficiency against virus (5 mM EGCG, 1 minute)
+: CPE test (virus replication in cell wells) (1 mM EGCG + virus, 1 minute, dilution factor 10^4, third experiment) | CPE test (virus replication in cell wells) (1 mM EGCG + virus, 1 minute, dilution factor 10^5, second experiment) | CPE test (virus replication in cell wells) (1 mM EGCG + virus, 1 minute, dilution factor 10^5, third experiment) | CPE test (virus replication in the cell wells) (1 mM EGCG + virus, co-incubated 5 minute, dilution factor 10^1, first experiment) | CPE test (virus replication in the cell wells) (1 mM EGCG + virus, co-incubated 5 minute, dilution factor 10^1, second experiment) | CPE test (virus replication in the cell wells) (1 mM EGCG + virus, co-incubated 5 minute, dilution factor 10^2, first experiment) | CPE test (virus replication in the cell wells) (1 mM EGCG + virus, co-incubated 5 minute, dilution factor 10^2, second experiment) | CPE test (virus replication in the cell wells) (1 mM EGCG + virus, co-incubated 5 minute, dilution factor 10^3, first experiment) | CPE test (virus replication in the cell wells) (1 mM EGCG + virus, co-incubated 5 minute, dilution factor 10^3, second experiment) | CPE test (virus replication in the cell wells) (1 mM EGCG + virus, co-incubated 5 minute, dilution factor 10^4, first experiment) | CPE test (virus replication in the cell wells) (1 mM EGCG + virus, co-incubated 5 minute, dilution factor 10^4, second experiment) | CPE test (virus replication in the cell wells) (1 mM EGCG + virus, co-incubated 5 minute, dilution factor 10^5, first experiment) | CPE test (virus replication in the cell wells) (1 mM EGCG + virus, co-incubated 5 minute, dilution factor 10^5, second experiment) | CPE test per cell well (5 mM EGCG + EV-D68 virus, 1 minute, dilution factor 10^2, wells 1-10) | CPE test per cell well (5 mM EGCG + EV-D68 virus, 1 minute, dilution factor 10^3, wells 1-10) | CPE test per cell well (5 mM EGCG + EV-D68 virus, 1 minute, dilution factor 10^4, wells 1-10) | CPE test per cell well (5 mM EGCG + EV-D68 virus, 1 minute, dilution factor 10^5, wells 1-10) | CPE test (virus replication in cell wells) (5 mM EGCG + EV-D68 virus, co-incubated 5 minute, third experiment, dilution factor 10^2) | CPE test (virus replication in cell wells) (5 mM EGCG + EV-D68 virus, co-incubated 5 minute, third experiment, dilution factor 10^3) | CPE test (virus replication in cell wells) (5 mM EGCG + EV-D68 virus, co-incubated 5 minute, third experiment, dilution factor 10^4) | CPE test (virus replication in cell wells) (5 mM EGCG + EV-D68 virus, co-incubated 5 minute, third experiment, dilution factor 10^5) | CPE test (virus replication in cell wells) (5 mM EGCG + virus, 1 minute, dilution factor 10^1, third experiment) | CPE test (virus replication in cell wells) (5 mM EGCG + virus, 1 minute, dilution factor 10^2, second experiment) | CPE test (virus replication in cell wells) (5 mM EGCG + virus, 1 minute, dilution factor 10^2, third experiment) | CPE test (virus replication in cell wells) (5 mM EGCG + virus, 1 minute, dilution factor 10^3, second experiment) | CPE test (virus replication in cell wells) (5 mM EGCG + virus, 1 minute, dilution factor 10^3, third experiment) | CPE test (virus replication in cell wells) (5 mM EGCG + virus, 1 minute, dilution factor 10^4, second experiment) | CPE test (virus replication in cell wells) (5 mM EGCG + virus, 1 minute, dilution factor 10^4, third experiment) | CPE test (virus replication in cell wells) (5 mM EGCG + virus, 1 minute, dilution factor 10^5, second experiment) | CPE test (virus replication in cell wells) (5 mM EGCG + virus, 1 minute, dilution factor 10^5, third experiment) | CPE test (virus replication in the cell wells) (5 mM EGCG + virus, co-incubated 5 minute, dilution factor 10^2, first experiment) | CPE test (virus replication in the cell wells) (5 mM EGCG + virus, co-incubated 5 minute, dilution factor 10^2, second experiment) | CPE test (virus replication in the cell wells) (5 mM EGCG + virus, co-incubated 5 minute, dilution factor 10^3, first experiment) | CPE test (virus replication in the cell wells) (5 mM EGCG + virus, co-incubated 5 minute, dilution factor 10^3, second experiment) | CPE test (virus replication in the cell wells) (5 mM EGCG + virus, co-incubated 5 minute, dilution factor 10^4, first experiment) | CPE test (virus replication in the cell wells) (5 mM EGCG + virus, co-incubated 5 minute, dilution factor 10^4, second experiment) | CPE test (virus replication in the cell wells) (5 mM EGCG + virus, co-incubated 5 minute, dilution factor 10^5, first experiment) | CPE test (virus replication in the cell wells) (5 mM EGCG + virus, co-incubated 5 minute, dilution factor 10^5, second experiment)
35.78%: average inactivation efficiency against virus (1 mM EGCG, 5 minutes)
− and +: CPE test (virus replication in cell wells) (1 mM EGCG + virus, 1 minute, dilution factor 10^7, second experiment) | CPE test (virus replication in cell wells) (1 mM EGCG + virus, 1 minute, dilution factor 10^7, third experiment) | CPE test per cell well (5 mM EGCG + EV-D68 virus, 1 minute, dilution factor 10^6, wells 1-10) | CPE test per cell well (5 mM EGCG + EV-D68 virus, 1 minute, dilution factor 10^7, wells 1-10) | CPE test (virus replication in cell wells) (5 mM EGCG + EV-D68 virus, co-incubated 5 minute, third experiment, dilution factor 10^6) | CPE test (virus replication in cell wells) (5 mM EGCG + virus, 1 minute, dilution factor 10^7, third experiment) | CPE test (virus replication in the cell wells) (5 mM EGCG + virus, co-incubated 5 minute, dilution factor 10^6, first experiment)
66.55%: average inactivation efficiency against virus (5 mM EGCG, 5 minutes)
